Assay results reported in the supplement of paper PMC10307832.

What was measured:
Assay in all cases: relative viability (nuclei count vs DMSO), 5 days (fraction); higher = more cells survive
A-427 = test system: A-427
Summary of the method: (§1)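 Lung cancer cell lines were pin-tool dosed in 1536-well plates on the day after seeding, with either a lone drug or a fixed anchor-drug dose plus five library-drug doses (not always all listed) in √10 steps. Nuclei were counted on 4× images after 5 days. Relative viability is the ratio of treated-well to vehicle-well nuclei counts, with each value a median of duplicate plates.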

BEN = test system: BEN
Summary of the method: as §1

H3255 = test system: H3255
Summary of the method: as §1

HCC-15 = test system: HCC-15
Summary of the method: as §1

LC-2-ad = test system: LC-2-ad
Summary of the method: as §1

LCLC-97TM1 = test system: LCLC-97TM1
Summary of the method: as §1

NCI-H1395 = test system: NCI-H1395
Summary of the method: as §1

NCI-H1650 = test system: NCI-H1650
Summary of the method: as §1

NCI-H1651 = test system: NCI-H1651
Summary of the method: as §1

NCI-H1755 = test system: NCI-H1755
Summary of the method: as §1

NCI-H1792 = test system: NCI-H1792
Summary of the method: as §1

NCI-H1993 = test system: NCI-H1993
Summary of the method: as §1

NCI-H2009 = test system: NCI-H2009
Summary of the method: as §1

NCI-H2085 = test system: NCI-H2085
Summary of the method: as §1

NCI-H23 = test system: NCI-H23
Summary of the method: as §1

NCI-H520 = test system: NCI-H520
Summary of the method: as §1

NCI-H647 = test system: NCI-H647
Summary of the method: as §1

NCI-H650 = test system: NCI-H650
Summary of the method: as §1

NCI-H661 = test system: NCI-H661
Summary of the method: as §1

NCI-H727 = test system: NCI-H727
Summary of the method: as §1

NCI-H838 = test system: NCI-H838
Summary of the method: as §1

PC-3 [JPC-3] = test system: PC-3 [JPC-3]
Summary of the method: as §1

RERF-LC-KJ = test system: RERF-LC-KJ
Summary of the method: as §1

SK-LU-1 = test system: SK-LU-1
Summary of the method: as §1

SK-MES-1 = test system: SK-MES-1
Summary of the method: as §1

Nc1cccc2c1CN(C1CCC(=O)NC1=O)C2=O (configuration not stated) [Lenalidomide] + Nc1ncn([C@H]2C[C@H](O)[C@@H](CO)O2)c(=O)n1 [Decitabine] (partner 2 µM)
relative viability (A-427; first compound 0.253 µM): 0.566 | relative viability (A-427; first compound 0.8 µM): 0.573 | relative viability (A-427; first compound 2.53 µM): 0.646 | relative viability (A-427; first compound 8 µM): 0.552 | relative viability (BEN; first compound 0.253 µM): 0.728 | relative viability (BEN; first compound 0.8 µM): 0.635 | relative viability (BEN; first compound 2.53 µM): 0.766 | relative viability (BEN; first compound 8 µM): 0.62 | relative viability (H3255; first compound 0.253 µM): 0.592 | relative viability (H3255; first compound 0.8 µM): 0.556 | relative viability (H3255; first compound 2.53 µM): 0.563 | relative viability (H3255; first compound 8 µM): 0.421 | relative viability (HCC-15; first compound 0.253 µM): 0.766 | relative viability (HCC-15; first compound 2.53 µM): 0.763 | relative viability (HCC-15; first compound 8 µM): 0.594 | relative viability (LC-2-ad; first compound 0.253 µM): 0.685 | relative viability (LC-2-ad; first compound 0.8 µM): 0.81 | relative viability (LC-2-ad; first compound 2.53 µM): 0.744 | relative viability (LC-2-ad; first compound 8 µM): 0.79 | relative viability (LCLC-97TM1; first compound 0.253 µM): 0.226 | relative viability (LCLC-97TM1; first compound 0.8 µM): 0.236 | relative viability (LCLC-97TM1; first compound 2.53 µM): 0.256 | relative viability (LCLC-97TM1; first compound 8 µM): 0.221 | relative viability (NCI-H1395; first compound 0.253 µM): 0.763 | relative viability (NCI-H1395; first compound 2.53 µM): 0.743 | relative viability (NCI-H1395; first compound 8 µM): 0.703 | relative viability (NCI-H1650; first compound 0.253 µM): 0.387 | relative viability (NCI-H1650; first compound 0.8 µM): 0.424 | relative viability (NCI-H1650; first compound 2.53 µM): 0.419 | relative viability (NCI-H1650; first compound 8 µM): 0.479 | relative viability (NCI-H1651; first compound 0.253 µM): 0.631 | relative viability (NCI-H1651; first compound 0.8 µM): 0.5 | relative viability (NCI-H1651; first compound 2.53 µM): 0.645 | relative viability (NCI-H1651; first compound 8 µM): 0.582 | relative viability (NCI-H1755; first compound 0.253 µM): 0.763 | relative viability (NCI-H1755; first compound 0.8 µM): 0.687 | relative viability (NCI-H1755; first compound 2.53 µM): 0.712 | relative viability (NCI-H1755; first compound 8 µM): 0.688 | relative viability (NCI-H1792; first compound 0.253 µM): 0.568 | relative viability (NCI-H1792; first compound 0.8 µM): 0.454 | relative viability (NCI-H1792; first compound 2.53 µM): 0.541 | relative viability (NCI-H1792; first compound 8 µM): 0.384 | relative viability (NCI-H1993; first compound 0.253 µM): 0.658 | relative viability (NCI-H1993; first compound 0.8 µM): 0.588 | relative viability (NCI-H1993; first compound 2.53 µM): 0.529 | relative viability (NCI-H1993; first compound 8 µM): 0.51 | relative viability (NCI-H2009; first compound 0.253 µM): 0.415 | relative viability (NCI-H2009; first compound 0.8 µM): 0.387 | relative viability (NCI-H2009; first compound 2.53 µM): 0.406 | relative viability (NCI-H2009; first compound 8 µM): 0.397 | relative viability (NCI-H2085; first compound 0.253 µM): 0.546 | relative viability (NCI-H2085; first compound 0.8 µM): 0.542 | relative viability (NCI-H2085; first compound 2.53 µM): 0.529 | relative viability (NCI-H2085; first compound 8 µM): 0.566 | relative viability (NCI-H23; first compound 0.253 µM): 0.302 | relative viability (NCI-H23; first compound 2.53 µM): 0.315 | relative viability (NCI-H23; first compound 8 µM): 0.305 | relative viability (NCI-H520; first compound 0.253 µM): 0.539 | relative viability (NCI-H520; first compound 0.8 µM): 0.548 | relative viability (NCI-H520; first compound 2.53 µM): 0.507 | relative viability (NCI-H520; first compound 8 µM): 0.438 | relative viability (NCI-H647; first compound 0.253 µM): 0.426 | relative viability (NCI-H647; first compound 0.8 µM): 0.318 | relative viability (NCI-H647; first compound 2.53 µM): 0.428 | relative viability (NCI-H647; first compound 8 µM): 0.446 | relative viability (NCI-H650; first compound 0.253 µM): 0.312 | relative viability (NCI-H650; first compound 0.8 µM): 0.349 | relative viability (NCI-H650; first compound 2.53 µM): 0.351 | relative viability (NCI-H650; first compound 8 µM): 0.332 | relative viability (NCI-H661; first compound 0.253 µM): 0.568 | relative viability (NCI-H661; first compound 0.8 µM): 0.548 | relative viability (NCI-H661; first compound 2.53 µM): 0.621 | relative viability (NCI-H661; first compound 8 µM): 0.568 | relative viability (NCI-H727; first compound 0.253 µM): 0.778 | relative viability (NCI-H727; first compound 0.8 µM): 0.637 | relative viability (NCI-H727; first compound 2.53 µM): 0.99 | relative viability (NCI-H727; first compound 8 µM): 0.616 | relative viability (NCI-H838; first compound 0.253 µM): 0.483 | relative viability (NCI-H838; first compound 0.8 µM): 0.404 | relative viability (NCI-H838; first compound 2.53 µM): 0.527 | relative viability (NCI-H838; first compound 8 µM): 0.491 | relative viability (PC-3 [JPC-3]; first compound 0.253 µM): 0.848 | relative viability (PC-3 [JPC-3]; first compound 0.8 µM): 0.807 | relative viability (PC-3 [JPC-3]; first compound 2.53 µM): 0.874 | relative viability (PC-3 [JPC-3]; first compound 8 µM): 0.878 | relative viability (RERF-LC-KJ; first compound 0.253 µM): 0.717 | relative viability (RERF-LC-KJ; first compound 0.8 µM): 0.655 | relative viability (RERF-LC-KJ; first compound 2.53 µM): 0.65 | relative viability (RERF-LC-KJ; first compound 8 µM): 0.774 | relative viability (SK-LU-1; first compound 0.253 µM): 0.614 | relative viability (SK-LU-1; first compound 0.8 µM): 0.58 | relative viability (SK-LU-1; first compound 2.53 µM): 0.72 | relative viability (SK-LU-1; first compound 8 µM): 0.603 | relative viability (SK-MES-1; first compound 0.253 µM): 0.362 | relative viability (SK-MES-1; first compound 0.8 µM): 0.342 | relative viability (SK-MES-1; first compound 2.53 µM): 0.428 | relative viability (SK-MES-1; first compound 8 µM): 0.394
